What was measured:
[1] = ROS generation rate / quantum yield, DPBF bleaching in methanol; format: physicochemical; settings: in methanol, DPBF trap, 450–470 nm illumination, riboflavin as reference
Description: The ROS generation rate was estimated using the spectrophotometric method, based on the absorption changes of 1,3-diphenylisobenzofuran (DPBF, Sigma Aldrich, Germany) in methanol solution. Irreversible oxidation of DPBF by singlet oxygen results in peroxide formation, and DPBF bleaching. When light of 400–450 nm was used as actinic, DPBF bleaching occurred without any photosensitizer (PS) in solution. Therefore, to study photosensitized ROS generation, we used a white MCWHLP1 LED (Thorlabs, USA) with filters to limit the radiation to the 450–470 nm range (5.5 mW/cm^2).
Spectrophotometric measurements were performed in a Qpod 2e (Quantum Northwest, USA) thermostated cuvette holder at 25 °C with magnetic stirring (500 rpm). Absorption spectra were recorded using a MayaPro spectrophotometer (Ocean Optics, USA) and a stabilized white light source with a SLS201L tungsten lamp (Thorlabs, USA). Illumination was uniform over the entire volume of the cuvette, to prevent artifacts associated with the diffusion of non-reacted components into the illuminated volume of the cuvette. In this case, the rate of irreversible bleaching of DPBF (412 nm) was the same under both continuous and pulsed irradiation with equal total irradiation time. Illumination was performed in a pulsed mode (Fig. S5A), with 1 s of illumination followed by 5 s of dark adaptation, during which the absorption spectrum of the PS-DPBF solution was recorded. Data processing was performed as previously described ([Gvozdev et al., 2020]).

[2] = system: CaCo-2 cells; experiment: Cellular stress marker expression by RT-qPCR in CaCo-2 cells; format: cell-based, human
Experimental: RT-qPCR was performed to evaluate changes in the gene expression of cellular stress markers. […] Previous publications report the primer sequences and numbers of the Universal Probe Library (UPL; Roche Life Sciences, Germany) used for detection of ATF3, CDKN1A (p21), CYP1A1, DDIT3, HMOX1, HSPA1B (HSP70), and HSPA5 mRNAs ([Procházková et al., 2018]; [Šimečková et al., 2020]). […] TaqMan™ Gene Expression Assays (Thermo Fisher Scientific, Waltham, MA, USA) were used to determine the levels of FGF21 (Hs00173927_m1), GADD45A (Hs00169255_m1), GDF15 (Hs00171132_m1), and SRXN1 (Hs00607800_m1). The amplification was run in a 10-µL reaction mixture containing 1 µL of sample, using Kapa Probe Fast One-Step (Kapa Biosystems Pty, Cape Town, South Africa) on a LightCycler® 480 System (Roche Diagnostics, Czech Republic) using the previously published sequence ([Procházková et al., 2018]). Reference gene qPCR assays (Generi Biotech, Hradec Králové, Czech Republic) were used for the following housekeeping genes: human β2-Microglobulin (B2M; #3030), hydroxymethylbilane synthase (HMBS; #3032), and RNA polymerase II subunit A (POLR2A; #3035). We used an average of three reference gene Cp values to calculate the change in gene expression using the comparative threshold cycle method ([Schmittgen and Livak, 2008]).

[3] = Fluorescence quantum yield determination; format: physicochemical; settings: in DMSO, relative to rhodamin B
Experimental: The samples’ steady-state fluorescence characteristics were measured in L-format using a Chronos DFD Fluorescence spectrometer (ISS, USA) equipped with a 300 W Cermax xenon arc lamp (ISS, USA), a concave holographic grating monochromator, and a PMT detector. The required amount of each sample was diluted in DMSO and measured in a 1-cm quartz cuvette at a constant temperature of 25 °C. The resulting data were evaluated using Vinci software (ISS, USA) and correlated to the utilized optical configuration.
Absorption spectra were measured using a high-performance Specord S 600 diode spectrophotometer (Jena Analyst, DE). The required amount of each sample was diluted in DMSO, added to 1-cm quartz cuvette, and measured within the selected absorbance spectrum range, against pure DMSO as a blank, at a constant temperature of 25 °C. The results were evaluated using WinASPECT® software (Jena Analyst, DE).
Fluorescence quantum yield was determined following a previously described protocol ([Kozma et al., 2005]; [Magde et al., 1999]; [Williams et al., 1983]). The kinetics of the incorporation of compounds into liposome membrane models was determined using steady-state fluorescence spectroscopy at a constant excitation and emission wavelength, according to the corresponding sample excitation and emission maxima. We added 50 μL of LNP suspension to 0.1 mM of the analyte in PBS, and monitored the increase of fluorescence intensity over the time range from 0 to 1400s. The preparation and characterization of the liposomal suspension is described in the supporting information (Fig. S4).
1. Supplementary material and methods
1.1. Fluorescence quantum yield (QY) determination
The steady-state fluorescence and absorption data were used for quantum yield determination. QY was determined relative to a reference compound, rhodamin B. Absorbance in the range of 0.01–0.1 was used to calculate the QY. We plotted two calibration curves of integrated emission fluorescence intensity as a function of sample absorbance. […]

[4] = system: CaCo-2 cells; experiment: Cytotoxicity assay (Cell Counting Kit-8) in CaCo-2 cells; format: cell-based, human; settings: up to 10 µM
Experimental: To determine the overall cytotoxicity of the tested compounds, Vero cells were cultured for 24 h in 96-well plates to form a confluent monolayer, and then were treated with the tested compounds at concentrations of 2 and 10 µM. After 48 h of cultivation in the dark at 37 °C under 5% CO2, the cell culture medium was aspirated. The potential cytotoxicity of the tested perylene derivatives was determined based on cell viability using Cell Counting Kit-8 (Dojindo Molecular Technologies, Munich, Germany) according to the manufacturer's instructions. The cell viabilities of compound-treated Vero cells were compared with those of control DMSO-treated cells. We also used the above-described protocol to assess the cytotoxicity of the selected perylene antivirals, at concentrations ranging from 0 to 10 µM, in CaCo-2 and CRFK cells.

## CC(C)(C)C(=O)OCn1c(=O)c(C#Cc2ccc3c4cccc5cccc(c6cccc2c63)c54)cn(CC(=O)N(CCO)CCO)c1=O [Compound 13]
[1]
  φROS (ROS generation quantum yield): 19.1 ± 0.2%
[2]; CaCo-2 cells, 10 µM, all tested incubation periods
  CYP1A1 expression: significantly decreased
[2]; CaCo-2 cells, 5, 24 and 48 h
  expression of HMOX1, SRXN1, TXNRD1 (oxidative stress): did not increase
  expression of HSPA5, DDIT3, HSPA1B (HSP70), CDKN1A (p21), GADD45A: no changes
  expression of early toxicity markers (ATF3, FGF21, GDF15): did not induce
[3]
  fluorescence quantum yield: 90%
[4]
  tolerability by CaCo-2 cells: well-tolerated
